# From article PMC7767178 (International Journal of Molecular Sciences, 2020)
# Where two headings read alike, the source gives them in different places.
# How the values were obtained:
# S. hyicus 437-2 = format: cell-based
# mice = test: Toxic effect on mice; format: in vivo; conditions: reason for exclusion from the mouse models
# pepsin = conditions: pH 2
smiles,measurement,setting,value
CC(C)[C@@H]1NC(=O)CNC(=O)[C@H](CC(N)=O)NC(=O)[C@H](CCCNC(=N)N)NC(=O)[C@H](Cc2ccc(O)cc2)NC(=O)[C@H](C(C)C)NC(=O)[C@@H](NC(=O)[C@@H](NC(=O)[C@H](CC(N)=O)NC(=O)[C@H](Cc2c[nH]c3ccccc23)NC(=O)[C@H](C)NC(=O)[C@H](Cc2ccccc2)NC(=O)[C@H](CCCN)N=C(N(C)C)N(C)C)C(C)C)CSSC[C@@H](C(=O)N[C@@H](Cc2c[nH]cn2)C(=O)N[C@@H](CCCNC(=N)N)C(=O)N[C@@H](CCCNC(=N)N)C(=O)N[C@@H](C)C(=O)N[C@@H](CC(N)=O)C(N)=O)NC(=O)[C@H](C(C)C)NC(=O)[C@H](CCCNC(=N)N)NC1=O (stereo in doubt) [Guo-N6NH2],MIC,S. hyicus 437-2,12.16 µM
same,MIC,"S. hyicus 437-2; S. hyicus 437-2 (clinical isolate, pig farm), broth dilution, 37 °C, 16–18 h, three experiments",32 µg/mL
same,toxicity in mice,mice,toxic effect on mice
same,MIC after pepsin treatment,pepsin,8 µg/mL
